Test results as given in US10450260B2, “NO- and H2S-releasing compounds” (RESEARCH FOUNDATION OF THE CITY UNIVERSITY OF NEW YORK, priority 2011, dated 2019).
Read-outs that look alike come from different tables or passages of the source.

Assays:
gastric mucosa = test: Gastric damage, ulcer index; type: in vivo, rat; conditions: rats, oral gavage, equimolar doses: ASA 180, NOSH-ASA 477, naproxen 80, NOSH-naproxen 188, sulindac 200, NOSH-sulindac 467 mg/kg; 6 h post-administration; vehicle UI=0
Experimental: The institutional animal care and research committees approved all experimental procedures described herein. Male Wistar rats (4 per group) weighing 180-200 g were obtained from Charles River Laboratories International (Wilmington, Mass.). The rats were fed standard laboratory chow and water. Rats were fasted for 48 h with free access to drinking water. […] Stomachs were then rapidly removed, cut along the greatest curvature, and rinsed with ice-cold distilled water. […] Tissues from stomachs were excised and processed for measurement of Prostaglandin E2 (PGE2), malondialdehyde (MDA) and Superoxide dismutase (SOD) activity.

[1] = tested on: MCF-7 (ER+) breast cancer cell xenograft; test: MCF-7 xenograft in athymic nude mice; type: in vivo, mouse
Text: (§1) Male athymic nude (NU/NU) mice, age 5 weeks, were purchased from Charles River Laboratories, Inc., (Wilmington, Mass.) and were housed according to institutional and NIH guidelines.
(§2) Human colon (SW480), Breast (MCF-7, MDA-MB-231), and pancreas (MIA PaCa2) cancer cells (2×10^6) suspended in Matrigel (BD Biosciences, San Jose, Calif.) 50% v/v were inoculated subcutaneously in the right flanks of each mouse (10 mice per group) using a 1-mL syringe and 22-gauge needles. After 10 days the animals from each implanted cell line were randomly divided into 2 groups (N=5/group) and gavaged daily with either vehicle (1% methylcelloluse) or NOSH-naproxen (100 mg/kg) or NOSH (100 mg/kg), the ADT-OH-butyl nitrate compound that releases H2S and NO, in the case of colon cancer xenografts; or NOSH-aspirin (100 mg/kg body weight) in the breast and pancreatic cancers groups. The tumor size was measured every other day using electronic calipers, the tumor volumes were calculated using the following formula: length×width^2/2. The weights of the mice were also recorded every 3 days. Twenty-seven (27) to thirty (30) days post inoculation, the mice were sacrificed, the tumors collected, weighed, and photographed.

[2] = tested on: HT-29 human colon cancer cells; test: MTT cell growth inhibition, HT-29; type: cell-based; conditions: HT-29 cells; for IC50: Homo sapiens
[3] = tested on: carrageenan-induced paw edema; test: Carrageenan-induced rat paw edema; type: in vivo; conditions: for paw volume versus vehicle treated rats (FIG. 2A): P<0.05, four rats in each group; for anti-inflammatory effect on paw swelling compared with parent NSAID: equimolar oral doses (Example 12)
Experimental: Carrageenan (1%, 100 μL, suspended in sterile saline solution, type IV lamda; Sigma-Aldrich) was subcutaneously injected into the plantar surface of the right hind paw in rat following the protocol described by Winter et al., Proceedings of the Society for Experimental Biology and Medicine 1962, 111:544-547. Paw volume was measured using a water displacement plethysmometer (model 520; IITC/Life Sciences Instruments, Woodland Hills, Calif.) before carrageenan injection and thereafter at 1-h intervals for 6 h. The paw volume measured just before carrageenan injection was used as the control volume. Data are expressed as the change in paw volume (milliliters) at each time point.
Carrageenan, type IV lambda (1%, 100 μL suspended in sterile saline solution), from Sigma Chemicals (St. Louis, Mo.) was subcutaneously injected into the plantar surface of the right hind paw in rat following the protocol described by Winter et al., Proceedings of the Society for Experimental Biology and Medicine 1962, 111:544-547. Paw volume was measured using a water displacement plethysmometer (Model 520, IITC/Life Sciences Instruments, Woodland Hills, Calif.) before carrageenan injection and thereafter at 1 hour intervals for 5 hours. The paw volume measured just prior to carrageenan injection was used as the control volume. Data are expressed as the change in paw volume (mL) at each time point.

[4] = tested on: MIA PaCa2 pancreatic cancer cell xenograft; test: MIA PaCa2 xenograft in athymic nude mice; type: in vivo, mouse
Text: as §1, §2

HT-29 cells = test: LDH release assay; type: cell-based, human
Experimental: For determination of lactate dehydrogenase (LDH) activity, HT-29 cells (1×10^5 cells/well) were incubated in 96-well plates with different concentrations of NOSH-1. After incubation for 2, 4, 8, 12 and 24 h, LDH activity in the supernatant was assessed using the LDH Cytotoxicity Assay Kit (Cayman Chemical Ann Arbor, Mich.), according to the manufacturer's instructions. Cytotoxicity was calculated as a percentage based on the LDH activity released from cells that had been treated with NOSH-1 compared with LDH activity from cultures incubated with Triton X-100. The % of LDH release was determined using the formula (E−C)/(T−C)×100, where E is the experimental absorbance of cell cultures, C is the control absorbance of cell-free culture medium, and T is the absorbance corresponding to the maximal (100%) LDH release of Triton-lysed cells.^1

LPS-induced fever = test: Anti-pyretic activity, LPS-induced fever; type: in vivo, rat; conditions: 2-4 hours after LPS injection
Experimental: To induce fever, LPS (50 μg/kg, Sigma, St. Louis, Mo., USA) was administered intraperitoneally to the animals an hour before the administration of test drugs as described previously (Pinto L et al., Pharm Pharmacol Communication 1988: 4:502-505). Rectal temperature was measured by inserting a lubricated thermistor probe (external diameter: 3 mm) 2.8 cm into the rectum of the animal. […] Rectal temperatures were taken every hour for 5 hours.

PGE2 = PGE2 in rat paw exudates; type: in vivo; conditions: for PGE2 levels in the paw exudate versus vehicle (FIG. 2B): P<0.01, four rats in each group
Experimental: Rats were euthanized by asphyxiation in a CO2 chamber. […] The absorbance at 412 nm was measured after 1 h incubation at room temperature. […] Proteins were determined by Biorad assay.
Proteins were determined by Biorad assay.

[5] = tested on: SW480 colon cancer cell xenograft; test: SW480 xenograft in athymic nude mice; type: in vivo, mouse
Text: as §1, §2

[6] = 100 mg/kg daily, day 30, vs control

CC1=C(CC(=O)O)c2cc(F)ccc2/C1=C\c1ccc([S+](C)[O-])cc1 (centres unmarked) [sulindac, reference compound]
gastric damage score, ulcer index (UI) (gastric mucosa): 130

O=C(CCCO[N+](=O)[O-])Oc1ccccc1C(=O)Oc1ccc(-c2cc(=S)ss2)cc1 [NOSH-1, 4-(3-thioxo-3H-1,2-dithiol-5-yl)phenyl 2-((4-(nitrooxy)butanoyl)oxy)benzoate]
mean tumor volume ([1]; 100 mg/kg daily gavage, end of study, control 935±93): 48±9 mm^3 | reduction of tumor mass ([1]; 100 mg/kg daily, day 27, vs control): 55% | average tumor mass ([1]; 100 mg/kg daily, day 27, control 0.46±0.056): 0.21 ± 0.035 g | mean reduction of tumor volume ([1]; 100 mg/kg daily, vs control): 98% | Potency enhancement (ratio of IC50 values ASA/NOSH-1), 48 h ([2]; 48 h): ~125,000 fold | Potency enhancement (ratio of IC50 values ASA/NOSH-1), 72 h ([2]; 72 h): ~250,000 fold | IC50 ([2]; 48 h, read-out: IC50, 48 h): 0.0197 ± 0.0033 µM | IC50 ([2]; 72 h, read-out: IC50, 72 h): 0.0077 ± 0.0022 µM | paw volume versus vehicle treated rats (FIG. 2A) [3]: significant reduction in paw volume at all time points | change in paw volume ΔV ([3]; high dose NOSH-1 0.52 mmol/kg, after 1-2 hours): 0.45 mL | change in paw volume ΔV ([3]; high dose NOSH-1 0.52 mmol/kg, over the next 4 hours (to 6 h)): 0.35 mL | change in paw volume ΔV ([3]; low dose NOSH-1 0.21 mmol/kg, after 1 hour): 0.5 mL | change in paw volume ΔV ([3]; low dose NOSH-1 0.21 mmol/kg, by 3 hours): 0.6 mL | change in paw volume ΔV ([3]; low dose NOSH-1 0.21 mmol/kg, over the next 3 hours (to 6 h)): ~0.4 mL | mean tumor volume ([4]; 100 mg/kg daily gavage, end of study, control 3265±476): 285±117 mm^3 | reduction of tumor mass [4, 6]: 75% | average tumor mass ([4]; 100 mg/kg daily, day 30, control 2.45±2.7): 0.61 ± 0.29 g | mean reduction of tumor volume ([4]; 100 mg/kg daily, vs control): 91% | gastric damage score, ulcer index (UI) (gastric mucosa): 2 | LDH release (HT-29 cells; 4-times its IC50, 24 hours): less than 10% | LDH release (HT-29 cells; 4-times its IC50, shorter durations (2, 4, 6, 8 hours)): 1-5% | LDH release (HT-29 cells; at its IC50, shorter durations (2, 4, 6, 8 hours)): 0.5-4% | reduction of LPS-induced fever compared with parent NSAID (LPS-induced fever): appeared to be better in reducing LPS-induced fever | PGE2 levels in paw exudate (PGE2; NOSH-1 0.21 mmol/kg): 42 ± 3 pg/mg | PGE2 levels in paw exudate (PGE2; NOSH-1 0.52 mmol/kg): 21 ± 4 pg/mg | PGE2 levels in the paw exudate versus vehicle (FIG. 2B) (PGE2): significant reduction in PGE2 levels

CC(=O)Oc1ccccc1C(=O)O [ASA, aspirin, reference compound]
IC50 ([2]; 48 h, read-out: IC50, 48 h): 2500 µM | IC50 ([2]; 72 h, read-out: IC50, 72 h): 2000 µM | change in paw volume ΔV ([3]; ASA 0.56 mmol/kg, after 6 hours): ~0.35 mL | change in paw volume ΔV ([3]; ASA 0.56 mmol/kg, at 1 hour): 0.4 mL | change in paw volume ΔV ([3]; ASA 0.56 mmol/kg, over the next 2 hours (after 1 h)): ~0.35 mL | paw volume versus vehicle treated rats (FIG. 2A) [3]: significant reduction in paw volume at all time points | PGE2 levels in the paw exudate versus vehicle (FIG. 2B) (PGE2): significant reduction in PGE2 levels | PGE2 levels in paw exudate (PGE2; aspirin 0.21 mmol/kg, control 82±2 pg/mg): 12±3 pg/mg protein

CC1=C(CC(=O)Oc2ccc(OC(=O)CCCO[N+](=O)[O-])c(C(=O)Oc3ccc(-c4cc(=S)ss4)cc3)c2)c2cc(F)ccc2/C1=C/c1ccc([S+](C)[O-])cc1 (centres unmarked) [NOSH-8, (E)-4-(3-thioxo-3H-1,2-dithiol-5-yl)phenyl 5-(2-(5-fluoro-2-methyl-1-(4-(methylsulfinyl)benzylidene)-1H-inden-3-yl)acetoxy)-2-((4-(nitrooxy)butanoyl)oxy)benzoate]
anti-inflammatory effect on paw swelling compared with parent NSAID [3]: the same anti-inflammatory response as sulindac | gastric damage score, ulcer index (UI) (gastric mucosa): 10

CC(C(=O)Oc1ccc(-c2cc(=S)ss2)cc1)c1ccc2cc(OC(=O)CCCO[N+](=O)[O-])ccc2c1 (centres unmarked) [NOSH-7, 6-(1-oxo-1-(4-(3-thioxo-3H-1,2-dithiol-5-yl)phenoxy)propan-2-yl)naphthalen-2-yl 4-(nitrooxy)butanoate]
mean tumor volume ([5]; 100 mg/kg daily gavage, end of study, control 2098±603): 379±73 mm^3 | reduction of tumor mass [5, 6]: 55% | average tumor mass ([5]; 100 mg/kg daily, day 30, control 1.42±0.48): 0.63 ± 0.11 g | mean reduction of tumor volume ([5]; 100 mg/kg daily, vs control): 82% | anti-inflammatory effect on paw swelling compared with parent NSAID [3]: even lower inflammatory response compared to naproxen | gastric damage score, ulcer index (UI) (gastric mucosa): 2 | reduction of LPS-induced fever compared with parent NSAID (LPS-induced fever): appeared to be better in reducing LPS-induced fever
